Assay results taken from patent US10233173B2, “Substituted 1,2,3-triazoles as NR2B-selective NMDA modulators” (JANSSEN PHARMACEUTICA NV, priority 2016, dated 2019).

Target: human GluN1/GluN2B NMDA receptors (Homo sapiens, UniProt Q05586+Q13224)
Experiment: Cell-based calcium flux (FLIPR) assay on cloned human NR1/NR2B ion channels expressed in mammalian cells
Conditions: standard assay
Method in brief: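 Calcium influx followed by FLIPR fluorescence after 5 min compound exposure and a further 5 min co-agonist challenge: 10 μM glycine with glutamate at ~EC80 (standard) or EC40 (HTS).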

[1] = glutamate at ~EC80, FLIPR calcium flux
[2] = human GluN1/GluN2B, calcium flux (FLIPR), glutamate ~EC80

Sequence of human GluN1/GluN2B NMDA receptors (Q13224 27-1484, other chains not shown): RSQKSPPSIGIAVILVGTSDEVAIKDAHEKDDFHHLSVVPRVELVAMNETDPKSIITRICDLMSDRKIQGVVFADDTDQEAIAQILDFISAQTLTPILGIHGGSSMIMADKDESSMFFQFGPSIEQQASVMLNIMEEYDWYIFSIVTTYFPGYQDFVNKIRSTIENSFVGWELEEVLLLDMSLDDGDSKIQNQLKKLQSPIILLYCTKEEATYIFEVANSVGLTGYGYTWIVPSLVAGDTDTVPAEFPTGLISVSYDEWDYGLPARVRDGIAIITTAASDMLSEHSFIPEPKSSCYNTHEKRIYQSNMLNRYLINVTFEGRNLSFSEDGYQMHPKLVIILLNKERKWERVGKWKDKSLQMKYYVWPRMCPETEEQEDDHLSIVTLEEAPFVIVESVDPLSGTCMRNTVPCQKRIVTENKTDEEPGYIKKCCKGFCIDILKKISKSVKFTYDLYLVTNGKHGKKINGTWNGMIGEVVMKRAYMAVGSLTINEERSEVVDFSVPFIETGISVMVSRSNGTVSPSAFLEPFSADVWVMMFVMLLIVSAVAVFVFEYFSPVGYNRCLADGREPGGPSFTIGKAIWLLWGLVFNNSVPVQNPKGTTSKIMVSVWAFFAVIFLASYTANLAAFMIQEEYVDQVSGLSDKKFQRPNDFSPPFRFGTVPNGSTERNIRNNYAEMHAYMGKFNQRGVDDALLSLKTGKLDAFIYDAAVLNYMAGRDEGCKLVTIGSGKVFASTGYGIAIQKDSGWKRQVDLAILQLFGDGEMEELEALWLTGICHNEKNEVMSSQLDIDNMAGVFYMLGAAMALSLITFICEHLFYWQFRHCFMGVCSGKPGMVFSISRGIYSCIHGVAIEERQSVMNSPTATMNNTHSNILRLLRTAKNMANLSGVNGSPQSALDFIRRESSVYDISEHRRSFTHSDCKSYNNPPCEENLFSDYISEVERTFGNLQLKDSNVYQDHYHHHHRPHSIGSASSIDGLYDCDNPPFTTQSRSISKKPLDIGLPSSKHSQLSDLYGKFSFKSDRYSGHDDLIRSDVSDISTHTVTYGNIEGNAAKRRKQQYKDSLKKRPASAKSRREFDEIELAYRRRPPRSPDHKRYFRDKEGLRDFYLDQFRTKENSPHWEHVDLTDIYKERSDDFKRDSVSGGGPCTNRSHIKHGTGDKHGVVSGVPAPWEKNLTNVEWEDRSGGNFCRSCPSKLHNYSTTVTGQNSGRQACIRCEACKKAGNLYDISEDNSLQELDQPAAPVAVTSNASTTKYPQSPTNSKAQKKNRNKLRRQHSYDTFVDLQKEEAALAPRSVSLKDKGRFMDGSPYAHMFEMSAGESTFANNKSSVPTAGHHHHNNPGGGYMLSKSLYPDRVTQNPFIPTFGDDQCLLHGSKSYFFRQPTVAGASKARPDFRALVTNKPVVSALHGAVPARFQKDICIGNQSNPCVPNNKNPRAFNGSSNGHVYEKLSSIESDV

`Fc1ccc(-n2cc(COc3ncc(N4CC(F)C4)cn3)nn2)cc1C(F)F` [Example 416, 2-((1-(3-(Difluoromethyl)-4-fluorophenyl)-1H-1,2,3-triazol-4-yl)methoxy)-5-(3-fluoroazetidin-1-yl)pyrimidine] showed an IC50 [1] of 0.01 µM.

With `Fc1ccc(-n2cc(COc3nccc(N4CCCCC4)n3)nn2)cc1OC(F)F` [Example 169, 2-[[1-[3-(Difluoromethoxy)-4-fluoro-phenyl]triazol-4-yl]methoxy]-4-(1-piperidyl)pyrimidine] the IC50 [2] was 0.031 µM.

`CC(Oc1ncccn1)c1cn(-c2ccc(Cl)c(OC(F)F)c2)nn1` (single isomer, unassigned) [Example 54, (R*)-2-[1-[1-[4-Chloro-3-(difluoromethoxy)phenyl]triazol-4-yl]ethoxy]pyrimidine] showed an IC50 [2] of 4.64 µM.

In the case of `COc1ccnc(OCc2cn(-c3ccc(F)c(OC(F)F)c3)nn2)n1` [Example 497, 2-[[1-[3-(Difluoromethoxy)-4-fluoro-phenyl]triazol-4-yl]methoxy]-4-methoxy-pyrimidine], the IC50 [1] is reported as 0.028 µM.

Work on `Fc1cnc(OCc2cn(-c3ccc(Cl)c(C(F)F)c3)nn2)nc1` [Example 66, 2-[[1-[4-Chloro-3-(difluoromethyl)phenyl]triazol-4-yl]methoxy]-5-fluoro-pyrimidine] yielded an IC50 [2] of 0.052 µM.

`Cc1ccnc(OCc2cn(-c3ccc(F)c(C(F)(F)F)c3)nn2)c1` [Example 429, 2-[[1-[4-Fluoro-3-(trifluoromethyl)phenyl]triazol-4-yl]methoxy]-4-methyl-pyridine] gave an IC50 [1] of 0.665 µM.

With `COc1cnc(OCc2cn(-c3ccc(Cl)c(OC(F)F)c3)nn2)nc1` [Example 26, 2-[[1-[4-Chloro-3-(difluoromethoxy)phenyl]triazol-4-yl]methoxy]-5-methoxy-pyrimidine] the IC50 [2] was 0.003 µM.

Work on `FC(F)c1cnc(NCc2cn(-c3ccc(Cl)c(C(F)F)c3)nn2)nc1` [Example 204, N-[[1-[4-Chloro-3-(difluoromethyl)phenyl]triazol-4-yl]methyl]-5-(difluoromethyl)pyrimidin-2-amine] yielded an IC50 [2] of 0.24 µM.

Work on `Cc1nc(OCc2cn(-c3ccc(F)c(OC(F)F)c3)nn2)ncc1F` [Example 493, 2-[[1-[3-(Difluoromethoxy)-4-fluoro-phenyl]triazol-4-yl]methoxy]-5-fluoro-4-methyl-pyrimidine] yielded an IC50 [1] of 0.004 µM.

With `CC(=O)c1cnc(OCc2cn(-c3ccc(Cl)c(C(C)(F)F)c3)nn2)nc1` [Example 550, 1-[2-[[1-[4-Chloro-3-(1,1-difluoroethyl)phenyl]triazol-4-yl]methoxy]pyrimidin-5-yl]ethanone] the IC50 [1] was 0.016 µM.

`CC(F)(F)c1cc(-n2cc(COc3ncc(F)cn3)nn2)ccc1F` [Example 80, 2-[[1-[3-(1,1-Difluoroethyl)-4-fluoro-phenyl]triazol-4-yl]methoxy]-5-fluoro-pyrimidine] gave an IC50 [2] of 0.032 µM.

Work on `COC1CN(c2cnc(OCc3cn(-c4ccc(F)c(C(F)(F)F)c4)nn3)nc2)C1` [Example 460, 2-((1-(3-(Trifluoromethyl)-4-fluorophenyl)-1H-1,2,3-triazol-4-yl)methoxy)-5-(3-methoxyazetidin-1-yl)pyrimidine] yielded an IC50 [1] of 0.726 µM.

For `Fc1ccc(-n2cc(COc3cnccn3)nn2)cc1C(F)(F)F` [Example 434, 2-[[1-[4-Fluoro-3-(trifluoromethyl)phenyl]triazol-4-yl]methoxy]pyrazine], the IC50 [1] was 6.39 µM.

In the case of `Fc1cccc(-n2cc(COc3ncc(Cl)cn3)nn2)c1` [Example 231, 5-Chloro-2-[[1-(3-fluorophenyl)triazol-4-yl]methoxy]pyrimidine], the IC50 [2] is reported as 0.389 µM.

`Cc1ccnc(OCc2cn(-c3cccc(OC(F)(F)F)c3)nn2)n1` [Example 347, 4-Methyl-2-[[1-[3-(trifluoromethoxy)phenyl]triazol-4-yl]methoxy]pyrimidine] gave an IC50 [2] of 0.137 µM.

With `C[C@@H](Oc1ncc(Cl)cn1)c1cn(-c2ccc(Cl)c(OC(F)F)c2)nn1` [Example 375, 5-Chloro-2-[(1R)-1-[1-[4-chloro-3-(difluoromethoxy)phenyl]triazol-4-yl]ethoxy]pyrimidine] the IC50 [2] was 0.01 µM.

`CC(F)(F)c1cnc(OCc2cn(-c3ccc(F)c(C(F)F)c3)nn2)nc1` [Example 701, 5-(1,1-Difluoroethyl)-2-((1-(3-(difluoromethyl)-4-fluorophenyl)-1H-1,2,3-triazol-4-yl)methoxy)pyrimidine] was tested, and the IC50 [1] was 0.958 µM.

`Cc1cnc(OCc2cn(-c3cccc(Br)c3)nn2)nc1` [Example 234, 2-[[1-(3-Bromophenyl)triazol-4-yl]methoxy]-5-methyl-pyrimidine] showed an IC50 [2] of 0.022 µM.

`CC(C)(O)c1cnc(OCc2cn(-c3ccc(F)c(C(F)(F)F)c3)nn2)nc1` [Example 435, 2-[2-[[1-[4-Fluoro-3-(trifluoromethyl)phenyl]triazol-4-yl]methoxy]pyrimidin-5-yl]propan-2-ol] showed an IC50 [1] of 0.098 µM.

Compound `OCc1cnc(OCc2cn(-c3cccc(C(F)F)c3)nn2)nc1` [Example 160, [2-[[1-[3-(Difluoromethyl)phenyl]triazol-4-yl]methoxy]pyrimidin-5-yl]methanol] has an IC50 [2] of 0.173 µM.

Compound `Cc1cnc(NCc2cn(-c3ccc(F)c(C)c3)nn2)nc1` [Example 198, N-[[1-(4-Fluoro-3-methyl-phenyl)triazol-4-yl]methyl]-5-methyl-pyrimidin-2-amine] has an IC50 [2] of 0.147 µM.

With `Cc1cc(C)nc(OCc2cn(-c3ccc(F)c(Br)c3)nn2)n1` [Example 18, 2-[[1-(3-Bromo-4-fluoro-phenyl)triazol-4-yl]methoxy]-4,6-dimethyl-pyrimidine] the IC50 [2] was 0.082 µM.

`Fc1ccc(-n2cc(COc3ncccn3)nn2)cc1OC(F)F` [Example 33, 2-[[1-[3-(Difluoromethoxy)-4-fluoro-phenyl]triazol-4-yl]methoxy]pyrimidine] was tested, and the IC50 [2] was 0.018 µM.

Work on `CC(C)Oc1ccnc(OCc2cn(-c3ccc(Cl)c(OC(F)F)c3)nn2)n1` [Example 386, 2-((1-(4-Chloro-3-(difluoromethoxy)phenyl)-1H-1,2,3-triazol-4-yl)methoxy)-4-isopropoxypyrimidine] yielded an IC50 [2] of 0.504 µM.

In the case of `CC(O)c1cnc(OCc2cn(-c3ccc(F)c(C(F)F)c3)nn2)nc1` (racemic) [Example 157, (R/S)-1-[2-[[1-[3-(Difluoromethyl)-4-fluoro-phenyl]triazol-4-yl]methoxy]pyrimidin-5-yl]ethanol], the IC50 [2] is reported as 0.018 µM.

Compound `Cc1cccc(-n2cc(COc3ncc(F)cn3)nn2)c1` [Example 247, 5-Fluoro-2-[[1-(m-tolyl)triazol-4-yl]methoxy]pyrimidine] has an IC50 [2] of 0.34 µM.

`CC(C)(O)c1cnc(OCc2cn(-c3ccc(F)c(C(F)F)c3)nn2)nc1` [Example 401, 2-[2-[[1-[3-(Difluoromethyl)-4-fluoro-phenyl]triazol-4-yl]methoxy]pyrimidin-5-yl]propan-2-ol] gave an IC50 [1] of 0.017 µM.

`Fc1ccc(-n2cc(COc3ncc(N4CC(C(F)F)C4)cn3)nn2)cc1C(F)F` [Example 421, 2-((1-(3-(Difluoromethyl)-4-fluorophenyl)-1H-1,2,3-triazol-4-yl)methoxy)-5-(3-(difluoromethyl)azetidin-1-yl)pyrimidine] showed an IC50 [1] of 0.227 µM.

With `Cc1cnc(OCc2cn(-c3ccc(F)c(C(C)(F)F)c3)nn2)nc1N(C)C` [Example 579, 2-[[1-[3-(1,1-Difluoroethyl)-4-fluoro-phenyl]triazol-4-yl]methoxy]-N,N,5-trimethyl-pyrimidin-4-amine] the IC50 [1] was 0.087 µM.

For `Fc1ccc(-n2cc(COc3ncc(C(F)F)cn3)nn2)cc1C(F)(F)F` [Example 439, 5-(Difluoromethyl)-2-[[1-[4-fluoro-3-(trifluoromethyl)phenyl]triazol-4-yl]methoxy]pyrimidine], the IC50 [1] was 0.013 µM.

`CNCc1ccnc(OCc2cn(-c3ccc(F)c(OC(F)F)c3)nn2)n1` [Example 520, 1-(2-((1-(3-(Difluoromethoxy)-4-fluorophenyl)-1H-1,2,3-triazol-4-yl)methoxy)pyrimidin-4-yl)-N-methylmethanamine] was tested, and the IC50 [1] was 0.672 µM.

In the case of `Cc1c(F)cccc1-n1cc(COc2ncc(Cl)cn2)nn1` [Example 463, 5-Chloro-2-[[1-(3-fluoro-2-methyl-phenyl)triazol-4-yl]methoxy]pyrimidine], the IC50 [1] is reported as 0.647 µM.

For `CNC(=O)c1ccnc(OCc2cn(-c3ccc(F)c(C(F)F)c3)nn2)n1` [Example 162, 2-[[1-[3-(Difluoromethyl)-4-fluoro-phenyl]triazol-4-yl]methoxy]-N-methyl-pyrimidine-4-carboxamide], the IC50 [2] was > 2.99 µM.

Work on `CNc1ccnc(OCc2cn(-c3ccc(Cl)c(C(C)(F)F)c3)nn2)n1` [Example 548, 2-[[1-[4-Chloro-3-(1,1-difluoroethyl)phenyl]triazol-4-yl]methoxy]-N-methyl-pyrimidin-4-amine] yielded an IC50 [1] of 0.055 µM.

`CC(=O)c1cnc(OCc2cn(-c3ccc(F)c(C(C)(F)F)c3)nn2)nc1` [Example 585, 1-[2-[[1-[3-(1,1-Difluoroethyl)-4-fluoro-phenyl]triazol-4-yl]methoxy]pyrimidin-5-yl]ethanone] gave an IC50 [1] of 0.011 µM.

`Cc1nc(OCc2cn(-c3cccc(C(F)(F)F)c3)nn2)ncc1Cl` [Example 291, 5-Chloro-4-methyl-2-[[1-[3-(trifluoromethyl)phenyl]triazol-4-yl]methoxy]pyrimidine] was tested, and the IC50 [2] was 0.009 µM.

For `CC(F)(F)c1cc(-n2cc(COc3ncc(N4CC(F)C4)cn3)nn2)ccc1F` [Example 589, 2-((1-(3-(1,1-Difluoroethyl)-4-fluorophenyl)-1H-1,2,3-triazol-4-yl)methoxy)-5-(3-fluoroazetidin-1-yl)pyrimidine], the IC50 [1] was 0.013 µM.

In the case of `Fc1cccc(-n2cc(COc3ncccn3)nn2)c1F` [Example 607, 2-[[1-(2,3-Difluorophenyl)triazol-4-yl]methoxy]pyrimidine], the IC50 [1] is reported as 3.43 µM.

Work on `COCc1ccnc(OCc2cn(-c3ccc(F)c(C)c3F)nn2)n1` [Example 645, 2-[[1-(2,4-Difluoro-3-methyl-phenyl)triazol-4-yl]methoxy]-4-(methoxymethyl)pyrimidine] yielded an IC50 [1] of 0.799 µM.

Compound `CC(C)c1cnc(OCc2cn(-c3cccc(C(F)(F)F)c3)nn2)nc1` [Example 288, 5-Isopropyl-2-[[1-[3-(trifluoromethyl)phenyl]triazol-4-yl]methoxy]pyrimidine] has an IC50 [2] of 0.04 µM.

Work on `CC(F)(F)c1cc(-n2cc(COc3ncccn3)nn2)ccc1F` [Example 78, 2-[[1-[3-(1,1-Difluoroethyl)-4-fluoro-phenyl]triazol-4-yl]methoxy]pyrimidine] yielded an IC50 [2] of 0.06 µM.
